Test results as given in ChEMBL document CHEMBL1201862, “PubChem BioAssay data set” (2004).
Active and inactive are the calls of the source.

What was measured:
INS1 = assay: INS-1E survival protection against cytokine death – cell-based, luminescence, retest, dose response (AID 449756); format: functional; conditions: Rattus norvegicus;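 further: cell death triggered by IL-1 beta plus TNF-alpha plus IFN-gamma mixture; protective hits raise ATP signal compared with cytokine alone wells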
[1] = Luminescence Cell-Based Dose Retest to Confirm Inhibitors of Cancer Stem Cells. [Related pubchem assays (depositor defined):AID2717, AID2721]; format: functional; conditions: Homo sapiens
[2] = luciferase reporter signal suppression in cells – H4 neuroglioma cells, luminescence, dose response (AID 1990); format: functional, cell-based
Paired box protein Pax-8 = Paired box protein Pax-8 (Homo sapiens, UniProt Q06710); assay: PAX8 transcriptional activity inhibition in RMG-I – RMG-I cells, luciferase, cherry-pick, dose response (AID 687027); format: functional, cell-based;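 further: luciferase reporter driven by Pax8 target thyroperoxidase promoter measured by SteadyGlo luminescence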
Chain of Paired box protein Pax-8 (Q06710 whole entry, the tested form may be a part): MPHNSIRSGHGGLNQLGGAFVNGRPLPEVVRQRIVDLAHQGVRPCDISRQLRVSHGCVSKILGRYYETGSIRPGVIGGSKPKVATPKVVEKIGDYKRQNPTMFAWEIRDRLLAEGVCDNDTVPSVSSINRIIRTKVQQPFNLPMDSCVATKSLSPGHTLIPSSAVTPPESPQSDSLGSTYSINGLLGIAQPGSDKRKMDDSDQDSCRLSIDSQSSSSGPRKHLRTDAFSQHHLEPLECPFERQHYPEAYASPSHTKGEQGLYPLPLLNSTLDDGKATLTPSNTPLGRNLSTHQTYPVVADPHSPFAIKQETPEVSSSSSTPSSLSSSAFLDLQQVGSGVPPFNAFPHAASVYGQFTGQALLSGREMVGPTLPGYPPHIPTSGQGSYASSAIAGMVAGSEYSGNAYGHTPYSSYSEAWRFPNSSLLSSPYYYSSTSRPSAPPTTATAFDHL

[3] = blockers of HIV-1 ZM109 envelope-driven cell-cell fusion – HeLa effector, CEM target cells, luciferase, cherry-pick, dose response (AID 652058); format: functional, cell-based;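 further: luciferase signal from HIV-1 Env mediated cell-cell fusion of effector and target cells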
HEK293 = assay: EBV LMP1 TES2 canonical NF-kB signalling blockers – cell-based, HEK293, luciferase, cherry-pick, dose response (AID 588343); format: functional; conditions: Homo sapiens
[4] = microbe, parasite or virus in culture; format: functional; conditions: Mycobacterium tuberculosis
[5] = alpha-synuclein stem-loop luciferase translation blockers – H4 neuroglioma cells, luminescence, confirmation (AID 1988); format: functional, cell-based
[6] = Luminescence Cell-Based Dose Response HTS to Identify Inhibitors of 5'UTR Stem-Loop Driven Prion Protein mRNA Translation in H4 Neuroglioblastoma Cells. [Related pubchem assays: 1827 (Project Summary), 1813 (Primary HTS)]; format: functional
[7] = viability loss in CEM21 cells – cell-based, CellTiter-Glo luminescence, cherry-picked, cytotoxicity control for viral fusion inhibitor project, dose response (AID 652042); format: functional;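 further: potency for signal decrease meaning cytotoxicity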
[8] = blockers of HIV-1 envelope-mediated cell-cell fusion – cherry-pick, dose response (AID 652057); format: functional, cell-based
[9] = off-target signal loss in HeLa-CEM21 co-culture – HeLa F-luc CTL cells, cherry-picked, counter-screen for HIV-1 Env fusion inhibitor project, dose response (AID 652040); format: functional, cell-based;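 further: potency for signal decrease marking cytotoxic or nonspecific inhibition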
[10] = HIV-1 AD8 envelope cell-cell fusion blockers – cherry-pick, dose response (AID 652062); format: functional, cell-based;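 further: luciferase signal from cell-cell fusion driven by HIV-1 clade B AD8 Env; potency is for inhibitors of fusion seen as a drop in luminescence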
[11] = A549 cell cytotoxicity, dose response, cytotoxicity control, plate reader, cherry-pick, antagonist series (AID 743412); format: functional, cell-based
[12] = Vero E6 cell cytotoxicity, dose response, cytotoxicity control for non-replicating M. tuberculosis project, secondary assay (AID 492998); format: functional, VeroE6; conditions: Vero C1008
[13] = target: Luciferin 4-monooxygenase (Photinus pyralis, UniProt P08659); assay: inhibition of purified Photinus pyralis luciferase – biochemical, luminescence, dose response (AID 1891)
Chain of Luciferin 4-monooxygenase (P08659 whole entry): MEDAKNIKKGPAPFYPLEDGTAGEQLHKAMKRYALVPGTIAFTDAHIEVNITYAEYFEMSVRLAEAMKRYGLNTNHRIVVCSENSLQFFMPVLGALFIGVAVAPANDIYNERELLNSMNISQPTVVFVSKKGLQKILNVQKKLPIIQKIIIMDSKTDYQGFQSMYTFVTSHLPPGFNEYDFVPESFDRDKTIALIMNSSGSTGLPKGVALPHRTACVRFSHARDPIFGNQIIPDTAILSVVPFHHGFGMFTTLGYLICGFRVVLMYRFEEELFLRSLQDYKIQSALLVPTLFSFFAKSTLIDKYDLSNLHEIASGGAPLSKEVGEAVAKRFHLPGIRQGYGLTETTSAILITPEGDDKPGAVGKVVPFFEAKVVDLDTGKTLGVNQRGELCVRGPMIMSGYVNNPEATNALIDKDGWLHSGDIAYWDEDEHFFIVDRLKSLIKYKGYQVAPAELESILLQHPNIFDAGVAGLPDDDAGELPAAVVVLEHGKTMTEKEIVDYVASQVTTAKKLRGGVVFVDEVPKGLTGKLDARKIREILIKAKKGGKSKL

[14] = toxicity toward HepG2 liver cells – cell-based, plate reader, cherry-pick, antagonist series, cytotoxicity control, dose response (AID 743416); format: functional
[15] = viability loss in HEK293 cells – cell-based, plate reader, cherry-picked samples, cytotoxicity control, dose response (AID 743446); format: functional
[16] = blockade of melanocortin 4 receptor signaling – cell-based, plate reader, cherry pick, counter-screen for LGR2 antagonist project, dose response (AID 743444); format: functional;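 further: transfected HEK 293 cells stimulated with alpha-MSH peptide; potency of inhibitors of the alpha-MSH evoked signal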
[17] = blockers of bursicon-stimulated LGR2 cAMP reporter – cell-based, HEK293, CRE-luciferase reporter, cherry pick, set 2, dose response (AID 743343); format: functional;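 further: transfected cells were stimulated with diluted bursicon conditioned medium after compound addition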
[18] = Luminescence Cell-Based Dose Confirmation HTS to Identify Inhibitors of Platelet Dense Granule Release. [Related pubchem assays: 1663 (Primary HTS), 1678 (Summary of Project)]; format: functional
[19] = THP-1 cell cytotoxicity, dose response, cytotoxicity control for non-replicating M. tuberculosis project (AID 489025); format: functional
cells = format: functional
Coagulation factor XII = target: T1, Coagulation factor XII (Homo sapiens, UniProt P00748); format: functional;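 further: activated factor XIIa alpha cleaving a fluorogenic AMC peptide substrate; inhibitor potency from loss of enzyme activity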
T1 sequence (P00748 whole entry): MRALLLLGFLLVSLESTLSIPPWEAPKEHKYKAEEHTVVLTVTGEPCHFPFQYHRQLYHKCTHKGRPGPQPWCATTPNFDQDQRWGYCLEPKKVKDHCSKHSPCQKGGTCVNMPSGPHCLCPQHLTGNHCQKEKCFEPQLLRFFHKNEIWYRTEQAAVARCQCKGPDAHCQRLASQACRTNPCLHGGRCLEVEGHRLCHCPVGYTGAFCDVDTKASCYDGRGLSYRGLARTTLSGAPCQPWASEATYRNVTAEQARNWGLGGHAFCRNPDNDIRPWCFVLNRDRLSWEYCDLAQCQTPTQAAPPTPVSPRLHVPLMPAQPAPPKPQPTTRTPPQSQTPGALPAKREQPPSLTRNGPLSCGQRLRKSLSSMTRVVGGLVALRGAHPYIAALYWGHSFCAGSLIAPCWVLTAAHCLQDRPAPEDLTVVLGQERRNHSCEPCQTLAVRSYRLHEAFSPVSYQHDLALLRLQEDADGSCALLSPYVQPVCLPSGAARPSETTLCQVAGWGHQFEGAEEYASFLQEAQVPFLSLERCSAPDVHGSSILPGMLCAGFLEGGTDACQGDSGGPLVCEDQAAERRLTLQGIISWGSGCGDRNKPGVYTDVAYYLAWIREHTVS

Mu-type opioid receptor = Mu-type opioid receptor (Homo sapiens, UniProt P35372); format: functional, cell-based;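 further: U2OS cells with beta-arrestin recruitment to OPRM1 by beta-gal complementation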
Chain of Mu-type opioid receptor (P35372 whole entry): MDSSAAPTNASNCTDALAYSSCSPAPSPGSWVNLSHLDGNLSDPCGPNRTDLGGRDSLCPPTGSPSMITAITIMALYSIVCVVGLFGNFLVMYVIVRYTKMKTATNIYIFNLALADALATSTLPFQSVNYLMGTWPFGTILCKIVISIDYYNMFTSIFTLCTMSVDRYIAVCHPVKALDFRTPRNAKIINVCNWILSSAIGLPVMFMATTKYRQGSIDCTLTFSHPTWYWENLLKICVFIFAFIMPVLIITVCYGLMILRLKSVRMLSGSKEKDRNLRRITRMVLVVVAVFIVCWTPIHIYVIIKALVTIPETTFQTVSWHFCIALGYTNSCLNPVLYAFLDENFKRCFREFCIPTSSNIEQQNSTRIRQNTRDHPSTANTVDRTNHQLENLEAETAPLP

[20] = target: 5-hydroxytryptamine receptor 2A (Mus musculus, UniProt P35363); format: functional, cell-based;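 further: CHO-K1 cells with tagged receptor and beta-arrestin; agonist potency measured as compound-induced activation of the receptor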
Chain of 5-hydroxytryptamine receptor 2A (P35363 whole entry): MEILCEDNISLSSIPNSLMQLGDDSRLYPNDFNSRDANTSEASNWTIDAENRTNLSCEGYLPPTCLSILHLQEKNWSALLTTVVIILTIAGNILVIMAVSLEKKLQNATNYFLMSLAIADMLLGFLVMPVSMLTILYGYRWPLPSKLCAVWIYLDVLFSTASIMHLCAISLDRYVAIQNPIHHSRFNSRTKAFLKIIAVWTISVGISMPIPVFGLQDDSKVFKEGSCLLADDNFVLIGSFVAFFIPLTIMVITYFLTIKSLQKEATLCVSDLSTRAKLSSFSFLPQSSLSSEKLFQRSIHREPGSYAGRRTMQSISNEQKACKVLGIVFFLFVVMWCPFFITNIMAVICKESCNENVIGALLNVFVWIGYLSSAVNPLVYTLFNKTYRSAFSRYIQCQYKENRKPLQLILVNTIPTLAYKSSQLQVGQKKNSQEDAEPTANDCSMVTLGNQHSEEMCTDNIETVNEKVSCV

With CCN(CC)S(=O)(=O)c1cccc(NC(=O)Nc2cccc(C(F)(F)F)c2)c1 the AC50 (INS1) was 5.03 µM (active), the AC50 [1] was 3.36 µM (active) and the EC50 [2] was > 120 µM (not active). The AC50 (Paired box protein Pax-8) was 14.9 µM (active), the AC50 [3] was < 0.26 µM (active) and the AC50 (HEK293) was 21.4 µM (active). For the same molecule, the CC50 [4] was 13.8 µM (active), the EC50 [5] was > 120 µM (not active) and the EC50 [6] was > 120 µM (not active). For the same molecule, the AC50 [7] was 13.6 µM (active), the AC50 [8] was 0.542 µM (active) and the AC50 [9] was 7.47 µM (active). The AC50 [10] was 10.4 µM (active).
With Cc1cnc(NC(=O)c2ccccn2)s1 the AC50 [11] was 24 µM (active), the CC50 [12] was > 20 µM (active) and the EC50 [13] was 34.9 µM (active). For the same molecule, the AC50 [14] was 27.8 µM (active), the AC50 [15] was 30.8 µM (active) and the AC50 [16] was 6.72 µM (active). The AC50 (HEK293) was 8.48 µM (active), the AC50 [17] was 7.9 µM (active) and the EC50 [18] was 18 µM (active). For the same molecule, the CC50 [19] was > 40 µM (active) and the IC50 (cells) was 4.77 µM (active).
In the case of O=C(CN1CCN(c2ccccn2)CC1)Nc1ccc(Oc2ccccc2)cc1, the IC50 (Coagulation factor XII) is reported as > 50 µM (inactive), the EC50 (Mu-type opioid receptor) is reported as 92.4 µM (inactive) and the EC50 [20] is reported as 1.17 µM (active).
